ChEMBL document CHEMBL1143193, “A new family of H3 receptor antagonists based on the natural product Conessine” (Bioorg Med Chem Lett, 2008)
pKi: −log10 of the molar value. Active and inactive are the calls of the source. No cut-off for these calls is given here.

Legend:
Histamine H3 receptor = Histamine H3 receptor (Rattus norvegicus, UniProt Q9QYN8); assay: Displacement of N-[3H]methylhistamine from histamine H3 receptor in rat cortex; details: for pKi: read-out: Ki; for Ki: read-out: Log Ki (converted)
Homo sapiens [1] = species: Homo sapiens; assay: Selectivity for human histamine H3 receptor over human histamine H1 receptor
Homo sapiens [2] = species: Homo sapiens; assay: Selectivity for human histamine H3 receptor over human histamine H2 receptor
Homo sapiens [3] = species: Homo sapiens; assay: Selectivity for human histamine H3 receptor over human histamine H4 receptor
[4] = Oral bioavailability in rat; assay type: ADME, organism-based; details: in vivo
[5] = Half life in rat; assay type: ADME, organism-based; details: in vivo
Rattus norvegicus = species: Rattus norvegicus; assay: Inhibition of R-alpha-methylhistamine-induced drinking response in rat dipsogenia model; assay type: functional
[6] = biological target: Histamine H3 receptor (Rattus norvegicus) (UniProt Q9QYN8); assay: Displacement of N-[3H]methylhistamine from histamine H3 receptor in rat cortex at < 5 uM
Histamine H3 receptor (Rattus norvegicus), sequence (Q9QYN8 whole entry): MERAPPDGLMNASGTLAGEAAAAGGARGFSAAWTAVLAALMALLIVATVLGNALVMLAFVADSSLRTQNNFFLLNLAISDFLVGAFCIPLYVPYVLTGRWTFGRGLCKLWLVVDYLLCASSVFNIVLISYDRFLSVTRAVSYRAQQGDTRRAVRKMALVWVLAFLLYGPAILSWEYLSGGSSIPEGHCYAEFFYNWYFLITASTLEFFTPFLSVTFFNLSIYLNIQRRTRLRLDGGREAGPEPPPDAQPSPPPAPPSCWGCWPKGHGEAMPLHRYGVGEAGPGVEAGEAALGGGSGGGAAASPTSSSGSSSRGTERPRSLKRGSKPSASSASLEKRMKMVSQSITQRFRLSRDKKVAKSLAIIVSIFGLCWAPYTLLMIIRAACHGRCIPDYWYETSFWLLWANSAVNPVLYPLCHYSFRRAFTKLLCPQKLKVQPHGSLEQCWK

Histamine H3 receptor, sequence (Q9QYN8 whole entry): as above

Structure (SMILES)	pKi (Histamine H3 receptor)	further results
C1=C(c2ccc(CCN3CCCC3)cc2)[C@H]2CN(Cc3ccccc3)C[C@H]2C1	9.12	
CN(C)CCc1ccc(C2=CCC3CN(Cc4ccccc4)CC23)cc1 (stereo not drawn)	8.64	
O=C1CCCN1CCc1ccc(C2=CCC3CN(Cc4ccccc4)CC23)cc1 (stereo not drawn)	6.51	Ki (Histamine H3 receptor): 132 nM
C1=C(c2ccc(CCN3CCCC3)cc2)C2CN(c3cncnc3)CC2C1 (stereo not drawn)	8.15	
C[C@H]1[C@H]2CC[C@H]3[C@@H]4CC=C5C[C@@H](N(C)C)CC[C@]5(C)[C@H]4CC[C@]23CN1C [CONESSINE]	7.18	
CN1CCN(CCc2ccc(C3=CCC4CN(Cc5ccccc5)CC34)cc2)CC1 (stereo not drawn)	7.24	
C1=C(c2ccc(CCN3CCOCC3)cc2)C2CN(Cc3ccccc3)CC2C1 (stereo not drawn)	8.77	
C1=C(c2ccc(CCN3CCc4ccccc43)cc2)C2CN(Cc3ccccc3)CC2C1 (stereo not drawn)		Activity [6]: inactive
C1=C(c2ccc(CCN3CCCCC3)cc2)C2CN(Cc3ccccc3)CC2C1 (stereo not drawn)	9.40	
CC(C)N1CC2CC=C(c3ccc(CCN4CCCC4)cc3)C2C1 (racemic)	9.05	
FC1(F)CCN(CCc2ccc(C3=CCC4CN(Cc5ccccc5)CC34)cc2)C1 (stereo not drawn)	8.55	
C1=C(c2ccc(CCN3CCCC3)cc2)C2CN(c3ccccn3)CC2C1 (stereo not drawn)	8.70	
C1=C(c2ccc(CCN3CCCC3)cc2)C2CN(c3ncccn3)CC2C1 (stereo not drawn)	7.44	
C1=C(c2ccc(CCN3CCCC3)cc2)C2CN(c3ccccc3)CC2C1 (stereo not drawn)	7.17	
C1=C(c2ccc(CCN3Cc4ccccc4C3)cc2)C2CN(Cc3ccccc3)CC2C1 (stereo not drawn)	6.59	
OC[C@H]1CCCN1CCc1ccc(C2=CCC3CN(Cc4ccccc4)CC23)cc1 (stereo partly drawn)	9.29	
C1=C(c2ccc(CCN3CCC3)cc2)C2CN(Cc3ccccc3)CC2C1 (stereo not drawn)	8.62	

More lines, in order of rising pKi (Histamine H3 receptor), values ahead:

pKi (Histamine H3 receptor)	Structure (SMILES)	further results
9.40	C1=C(c2ccc(CCN3CCCC3)cc2)C2CN(C3CCCC3)CC2C1 (racemic)	
9.52	C1=C(c2ccc(CCN3CCCC3)cc2)C2CN(Cc3ccccc3)CC2C1 (stereo not drawn)	
9.54	CC(C)N1C[C@@H]2CC=C(c3ccc(CCN4CCCC4)cc3)[C@@H]2C1	
9.80	OC[C@@H]1CCCN1CCc1ccc(C2=CCC3CN(Cc4ccccc4)CC23)cc1 (stereo partly drawn)	
10.00	C1=C(c2ccc(CCN3CCCC3)cc2)C2CN(CC3CC3)CC2C1 (racemic)	Ki (Histamine H3 receptor): 0.112 nM
10.10	C1=C(c2ccc(CCN3CCCC3)cc2)[C@@H]2CN(C3CCCC3)C[C@@H]2C1	
10.15	C1=C(c2ccc(CCN3CCCC3)cc2)[C@@H]2CN(CC3CC3)C[C@@H]2C1	Selectivity ratio (Homo sapiens [1]): > 1000; Selectivity ratio (Homo sapiens [2]): > 1000; Selectivity ratio (Homo sapiens [3]): > 1000; bioavailability [4]: 78%; half-life [5]: 360 min; Activity (Rattus norvegicus): Dose-dependent effect; minimal effective dose (Rattus norvegicus; read-out: MED): 3 mg/kg
10.30	C1=C(c2ccc(CCN3CCCC3)cc2)[C@@H]2CN(Cc3ccccc3)C[C@@H]2C1	Selectivity ratio (Homo sapiens [1]): > 1000; Selectivity ratio (Homo sapiens [2]): > 1000; Selectivity ratio (Homo sapiens [3]): > 1000
10.30	CC1CCCN1CCc1ccc(C2=CCC3CN(Cc4ccccc4)CC23)cc1 (stereo not drawn)	
